Measurements: US12532889B2, “Herbicidal compositions comprising glufosinate” (BASF SE, priority 2023, dated 2026)

Experiments:
Assay in all cases: Post-emergence application in field trials (Example A)
Assay type in all cases: in vivo
CYNDA (Cynodon dactylon) = conditions: A-1 25, B-6 252 g ai/ha, 28 DAT, water 400 l/ha
How it was run: (§1)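 Weeds in field plots (natural infestation or seeded) are treated after emergence. Damage is then assessed at set days after treatment relative to untreated plants, scored 0–100%. Mixture values are compared with Colby-expected additive activity E.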

[1] = tested on: CYPKH (Cyperus kyllingia var. humilis); conditions: Table 5.4; CYPKH growth stage 76-77, height 13-14 cm; A-1 25, B-6 252 g ai/ha; 28 DAT; water 400 l/ha
How it was run: as §1

ERISS (Erigeron sp.) = conditions: Table 1.8, ERISS height 30-50 cm, 14 DAT, water 200 l/ha
How it was run: as §1

[2] = tested on: POLCO (Polygonum convolvulus); conditions: Table 3.2, A-1 12.5, B-2 500 g ai/ha, 14 DAT, water 100 l/ha
How it was run: as §1

[3] = tested on: DIGHO (Digitaria horizontalis); conditions: Table 1.4, DIGHO growth stage 24, 14 DAT, water 200 l/ha
How it was run: as §1

[4] = tested on: HORVS (Hordeum vulgare (spring barley)); conditions: Table 3.1, HORVS volunteer barley, growth stage 22-24, height 32-35 cm, 28 DAT, water 100 l/ha
How it was run: as §1

[5] = tested on: SETVE (Setaria verticillata); conditions: 42 DAT, growth stage 21-23, height 8-16 cm
How it was run: as §1

[6] = tested on: AMASP (Amaranthus spinosus); conditions: Table 5.5; AMASP growth stage 72; A-1 25, B-6 252 g ai/ha; 28 DAT; water 400 l/ha
How it was run: as §1

[7] = tested on: SETPA (Setaria palmifolia); conditions: Table 5.3; SETPA growth stage 76-77; A-1 25, B-6 252 g ai/ha; 28 DAT; water 300 l/ha
How it was run: as §1

[8] = tested on: BOILF (Spermacoce latifolia); conditions: Table 1.16, A-1 25, B-2 400 g ai/ha, 21 DAT, water 200 l/ha
How it was run: as §1

EPHHI (Euphorbia hirta) = conditions: Table 1.2; EPHHI height 25 cm; A-1 solo 25 g ai/ha; 14 DAT; water volume 100 l/ha; 0.5% v/v MSO
Method: (§2) In the examples below, using the method of S. R. Colby (1967) “Calculating synergistic and antagonistic responses of herbicide combinations”, Weeds 15, p. 22ff., the value E, which is expected if the activity of the individual active compounds is only additive, was calculated:
(§3) [formula] • where • X=percent activity using active herbicide A at an application rate a; • Y=percent activity using active herbicide B (e.g. glufosinate) at an application rate b; • E=expected activity (in %) by A+B at application rates a+b.
(§4) If the value found experimentally is higher than the value E calculated according to Colby, a synergistic effect is present.
(§5) On field test sites, natural weed infestation or seeded weeds were treated post-emergence of the weeds.
(§6) In the field trials, the weeds were treated as indicated below.
(§7) In the following experiments, the herbicidal activity for the individual herbicidal compositions (solo and mixture applications) was assessed at the indicated days after treatment (DAT). The assessments for the damage on undesired weeds caused by the composition was carried out using a scale from 0 to 100%, compared to the untreated control plants. Here, 0 means no damage and 100 means complete destruction of the plants.
(§8) Post-emergence application of Herbicide A-1 (A-1) and glufosinate ammonium (B-2) in Field Trials:
(§9) Herbicide A-1 (50 g/l), glufosinate ammonium (200 g/l) and optional herbicide C were, together with addition of 0.5% v/v MSO (methylated seed oil) as adjuvant, formulated in water as distribution medium as indicated and sprayed with commercial flat fan nozzles.

[9] = tested on: SPCHI (Spermacoce hispida); conditions: Table 1.2, SPCHI height 25 cm, 14 DAT, water volume 100 l/ha, 0.5% v/v MSO
Method: as §2, §3, §4, §5, §6, §7, §8, §9

[10] = tested on: DIGIN = TRCIN (Digitaria insularis)
Method: as §2, §3, §4, §5, §6, §7, §8, §9

[11] = tested on: CYPDI (Cyperus difformis); conditions: CYPDI height 25 cm
Method: as §2, §3, §4, §5, §6, §7, §8, §9

ELEIN (Eleusine indica) = tested on: ELEIN (Eleusine indica)
Method: as §2, §3, §4, §5, §6, §7, §8, §9

CCOC(=O)COc1ccccc1Oc1nc(-n2c(=O)cc(C(F)(F)F)n(C)c2=O)c(F)cc1Cl [A-1, ethyl 2-[2-[[3-chloro-5-fluoro-6-[3-methyl-2,6-dioxo-4-(trifluoromethyl)pyrimidin-1-yl]-2-pyridyl]oxy]phenoxy]acetate]
% herbicidal activity (CYNDA (Cynodon dactylon); Table 5.4, CYNDA growth stage 76-77, height 15-16 cm): 53% | % herbicidal activity (CYNDA (Cynodon dactylon); Table 5.5, CYNDA growth stage 72): 72% | % herbicidal activity [1]: 61% | % herbicidal activity (ERISS (Erigeron sp.); A-1 25, B-2 400 g ai/ha): 13% | % herbicidal activity (ERISS (Erigeron sp.); A-1 50, B-2 400 g ai/ha): 18% | % herbicidal activity [2]: 90% | % herbicidal activity ([3]; A-1 25, B-2 400 g ai/ha): 57% | % herbicidal activity ([3]; A-1 50, B-2 400 g ai/ha): 65% | % herbicidal activity ([4]; A-1 12.5, B-2 500 g ai/ha): 40% | % herbicidal activity ([4]; A-1 18, B-2 500 g ai/ha): 85% | % Herbicidal activity ([5]; A-1 12.5 g ai/ha): 60% | % herbicidal activity ([5]; A-1 18 g ai/ha): 50% | % herbicidal activity [6]: 84% | % herbicidal activity [7]: 65% | % herbicidal activity [8]: 72% | % herbicidal activity (EPHHI (Euphorbia hirta)): 50% | % herbicidal activity ([9]; A-1 solo 25 g ai/ha): 40% | % herbicidal activity ([9]; A-1 solo 50 g ai/ha): 50% | % herbicidal activity ([10]; Table 1.13, DIGIN height 20-30 cm, A-1 50, B-2 400 g ai/ha, 21 DAT, water 100 l/ha): 30% | % herbicidal activity ([10]; Table 1.17, DIGIN height 20-30 cm, A-1 50, B-2 400 g ai/ha, 21 DAT, water 200 l/ha): 30% | % herbicidal activity ([10]; Table 1.19, DIGIN height 20-30 cm, A-1 50, B-2 400 g ai/ha, 21 DAT, water 200 l/ha): 30% | % herbicidal activity ([10]; Table 1.20, DIGIN height 60-80 cm, A-1 50, B-2 400 g ai/ha, 21 DAT, water 200 l/ha): 55% | % herbicidal activity ([10]; Table 1.22, DIGIN in tillering stage, height 5-15 cm, A-1 50, B-2 400 g ai/ha, 21 DAT, water 200 l/ha): 57% | % herbicidal activity ([10]; Table 1.22, DIGIN in tillering stage, height 5-15 cm, A-1 50, B-2 600 g ai/ha, 21 DAT, water 200 l/ha): 57% | % herbicidal activity ([10]; Table 1.23, DIGIN growth stage 16-18, height 15-25 cm, A-1 50, B-2 400 g ai/ha, 21 DAT, water 200 l/ha): 57% | % herbicidal activity ([10]; Table 1.23, DIGIN growth stage 16-18, height 15-25 cm, A-1 50, B-2 600 g ai/ha, 21 DAT, water 200 l/ha): 57% | % herbicidal activity ([10]; Table 1.24, DIGIN growth stage 67, height 100 cm, A-1 50, B-2 400 g ai/ha, 21 DAT, water 200 l/ha): 7% | % herbicidal activity ([10]; Table 1.24, DIGIN growth stage 67, height 100 cm, A-1 50, B-2 600 g ai/ha, 21 DAT, water 200 l/ha): 7% | % herbicidal activity ([10]; Table 1.25, DIGIN in tillering stage, height 8-20 cm, A-1 50, B-2 400 g ai/ha, 21 DAT, water 200 l/ha): 53% | % herbicidal activity ([10]; Table 1.25, DIGIN in tillering stage, height 8-20 cm, A-1 50, B-2 600 g ai/ha, 21 DAT, water 200 l/ha): 53% | % herbicidal activity ([10]; Table 1.26, DIGIN in tillering stage, height 50-70 cm, A-1 50, B-2 400 g ai/ha, 21 DAT, water 200 l/ha): 55% | % herbicidal activity ([10]; Table 1.26, DIGIN in tillering stage, height 50-70 cm, A-1 50, B-2 600 g ai/ha, 21 DAT, water 200 l/ha): 55% | % herbicidal activity ([10]; Table 1.3, DIGIN height 60-80 cm, A-1 25, B-2 400 g ai/ha, 14 DAT, water 200 l/ha): 37% | % herbicidal activity ([10]; Table 1.3, DIGIN height 60-80 cm, A-1 50, B-2 400 g ai/ha, 14 DAT, water 200 l/ha): 60% | % herbicidal activity ([10]; Table 1.5, DIGIN growth stage 16-18, height 15-25 cm, A-1 50, B-2 400 g ai/ha, 14 DAT, water 200 l/ha): 62% | % herbicidal activity ([10]; Table 1.5, DIGIN growth stage 16-18, height 15-25 cm, A-1 50, B-2 600 g ai/ha, 14 DAT, water 200 l/ha): 62% | % herbicidal activity ([10]; Table 1.7, DIGIN height 50-70 cm, tillering stage, A-1 solo 50 g ai/ha, 14 DAT, water volume 200 l/ha, 0.5% v/v MSO): 42% | % herbicidal activity ([11]; Table 1.15, A-1 25, B-2 400 g ai/ha, 21 DAT, water 100 l/ha): 50% | % herbicidal activity ([11]; Table 1.2, A-1 solo 25 g ai/ha, 14 DAT, water volume 100 l/ha, 0.5% v/v MSO): 52% | % herbicidal activity ([11]; Table 1.2, A-1 solo 50 g ai/ha, 14 DAT, water volume 100 l/ha, 0.5% v/v MSO): 60% | % herbicidal activity (ELEIN (Eleusine indica); Table 1.10, ELEIN growth stage 23-25, height 3-5 cm, A-1 25, B-2 400 g ai/ha, 20 DAT, water 200 l/ha): 82% | % herbicidal activity (ELEIN (Eleusine indica); Table 1.1, ELEIN growth stage 24, A-1 solo 25 g ai/ha, 14 DAT, water volume 100 l/ha, 0.5% v/v MSO): 75% | % herbicidal activity (ELEIN (Eleusine indica); Table 1.14, ELEIN growth stage 24, A-1 25, B-2 400 g ai/ha, 21 DAT, water 100 l/ha): 58% | % herbicidal activity (ELEIN (Eleusine indica); Table 1.15, ELEIN height 25 cm, A-1 25, B-2 400 g ai/ha, 21 DAT, water 100 l/ha): 50% | % herbicidal activity (ELEIN (Eleusine indica); Table 1.15, ELEIN height 25 cm, A-1 50, B-2 400 g ai/ha, 21 DAT, water 100 l/ha): 60% | % herbicidal activity (ELEIN (Eleusine indica); Table 1.18, ELEIN growth stage 24, A-1 25, B-2 400 g ai/ha, 21 DAT, water 200 l/ha): 67% | % herbicidal activity (ELEIN (Eleusine indica); Table 1.18, ELEIN growth stage 24, A-1 50, B-2 400 g ai/ha, 21 DAT, water 200 l/ha): 82% | % herbicidal activity (ELEIN (Eleusine indica); Table 1.21, ELEIN growth stage 24, A-1 25, B-2 400 g ai/ha, 21 DAT, water 200 l/ha): 68% | % herbicidal activity (ELEIN (Eleusine indica); Table 1.21, ELEIN growth stage 24, A-1 50, B-2 400 g ai/ha, 21 DAT, water 200 l/ha): 73% | % herbicidal activity (ELEIN (Eleusine indica); Table 1.4, ELEIN growth stage 24, A-1 50, B-2 400 g ai/ha, 14 DAT, water 200 l/ha): 88% | % herbicidal activity (ELEIN (Eleusine indica); Table 1.9, ELEIN growth stage 23-25, height 3-5 cm, A-1 25, B-2 400 g ai/ha, 20 DAT, water 100 l/ha): 91%
